Results: patent publication US20150105252A1, “SUBSTITUTED PYRAZOLES AS HERBICIDES” (E I DU PONT DE NEMOURS AND COMPANY, priority 2013, published 2015)

Assays:
[1] = system: oilseed rape; experiment: Test C preemergence; format: in vivo, Brassica napus; conditions: preemergence; for Plant response rating, Oilseed Rape: 125 g ai/ha, scale 0 to 100, 0 = no effect, 100 = complete control
How it was run: (§1)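 Scores of 0 (no effect) to 100 (complete control) were assigned by eye after 13–15 days, comparing treated pots with controls. Soil-applied (preemergence) treatments went onto seeds in loam and sand; foliar (postemergence) treatments onto 1- to 4-leaf plants in peat medium.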

[2] = system: velvetleaf; experiment: Test A preemergence; format: in vivo, Abutilon theophrasti; conditions: preemergence; for Velvetleaf plant response rating (0 to 100 scale): 125 g ai/ha, visual injury approx. 10 days after treatment; for Velvetleaf plant response rating: 500 g ai/ha, visual injury after approx. 10 days, 0 to 100 scale (0 no effect, 100 complete control)
How it was run: (§2)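 Both timings tested concurrently in loam/sand soil: preemergence by directed soil spray, postemergence on plants of 2–10 cm at the one- to two-leaf stage. Greenhouse holding period was approximately 10 days before visual injury assessment (0–100, 0 = no effect).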

[3] = system: corn; experiment: Test C postemergence; format: in vivo, Zea mays; conditions: for Plant response rating (scale of 0 to 100 where 0 is no effect and 100 is complete control), Corn: Postemergence, 31 g ai/ha, visually evaluated after 13 to 15 days; for Corn plant response rating / Plant response rating, Corn: postemergence; for Corn plant response rating: 62 g ai/ha, scale 0 to 100
How it was run: as §1

[4] = system: pigweed; experiment: Test A preemergence; format: in vivo, Amaranthus retroflexus; conditions: preemergence; for Pigweed plant response rating (0 to 100 scale): 125 g ai/ha, visual injury approx. 10 days after treatment; for Pigweed plant response rating: 500 g ai/ha, visual injury after approx. 10 days, 0 to 100 scale (0 no effect, 100 complete control)
How it was run: as §2

[5] = system: lambsquarters; experiment: Test C postemergence; format: in vivo, Chenopodium album; conditions: for Plant response rating (scale of 0 to 100 where 0 is no effect and 100 is complete control), Lambsquarters: Postemergence, 31 g ai/ha, visually evaluated after 13 to 15 days; for Lambsquarters plant response rating / Plant response rating, Lambsquarters: postemergence; for Lambsquarters plant response rating: 62 g ai/ha, scale 0 to 100
How it was run: as §1

[6] = system: soybean; experiment: Test C preemergence; format: in vivo, Glycine max; conditions: preemergence; for Plant response rating, Soybean: 125 g ai/ha, scale 0 to 100, 0 = no effect, 100 = complete control
How it was run: as §1

[7] = system: wheat; experiment: Test C preemergence; format: in vivo, Triticum aestivum; conditions: preemergence; for Plant response rating, Wheat: 125 g ai/ha, scale 0 to 100, 0 = no effect, 100 = complete control
How it was run: as §1

[8] = system: johnsongrass; experiment: Test C postemergence; format: in vivo, Sorghum halepense; conditions: for Plant response rating (scale of 0 to 100 where 0 is no effect and 100 is complete control), Johnsongrass: Postemergence, 31 g ai/ha, visually evaluated after 13 to 15 days; for Johnsongrass plant response rating / Plant response rating, Johnsongrass: postemergence; for Johnsongrass plant response rating: 62 g ai/ha, scale 0 to 100
How it was run: as §1

[9] = system: waterhemp; experiment: Test C postemergence; format: in vivo, Amaranthus rudis; conditions: postemergence; for Plant response rating, Waterhemp: 250 g ai/ha, scale 0 to 100 (0 no effect, 100 complete control); for Waterhemp plant response rating: scale 0 to 100
How it was run: as §1

[10] = system: barnyardgrass; experiment: Test A preemergence; format: in vivo, Echinochloa crus-galli; conditions: preemergence
How it was run: as §2

[11] = system: blackgrass; experiment: Test C preemergence; format: in vivo, Alopecurus myosuroides; conditions: preemergence; for Plant response rating, Blackgrass: 125 g ai/ha, scale 0 to 100, 0 = no effect, 100 = complete control
How it was run: as §1

[12] = system: ragweed; experiment: Test C preemergence; format: in vivo, Ambrosia elation; conditions: preemergence; for Plant response rating, Ragweed: 125 g ai/ha, scale 0 to 100, 0 = no effect, 100 = complete control
How it was run: as §1

[13] = system: pigweed; experiment: Test A postemergence; format: in vivo, Amaranthus retroflexus
How it was run: as §2

[14] = system: johnsongrass; experiment: Test C preemergence; format: in vivo, Sorghum halepense; conditions: preemergence; for Plant response rating, Johnsongrass: 125 g ai/ha, scale 0 to 100, 0 = no effect, 100 = complete control
How it was run: as §1

[15] = system: foxtail, giant; experiment: Test C preemergence; format: in vivo, Setaria faberii; conditions: preemergence; for Plant response rating, Foxtail, Giant: 125 g ai/ha, scale 0 to 100, 0 = no effect, 100 = complete control
How it was run: as §1

[16] = system: velvetleaf; experiment: Test A postemergence; format: in vivo, Abutilon theophrasti
How it was run: as §2

[17] = 31 g ai/ha, visual rating, scale 0 to 100 (0 no effect, 100 complete control), 13 to 15 days
[18] = 62 g ai/ha, scale 0 to 100 (0 no effect, 100 complete control), 13 to 15 days
[19] = 250 g ai/ha, scale 0 to 100, 0 is no effect, 100 is complete control
[20] = 250 g ai/ha, scale 0 to 100 (0 no effect, 100 complete control)
[21] = 125 g ai/ha, scale 0 to 100, 0 no effect, 100 complete control
[22] = 500 g ai/ha, visual injury after approx. 10 days, 0 to 100 scale (0 no effect, 100 complete control)
[23] = Postemergence, 500 g ai/ha, 0 to 100 scale (0 no effect, 100 complete control)
[24] = postemergence, 125 g ai/ha, about 10 days, visual rating on 0 to 100 scale (0 no effect, 100 complete control)

## CCNC(=O)c1cc(CC)n(Cc2cc(C(F)(F)F)nn2C)n1 [Compound 154]
[1]; [17]
  Oilseed Rape plant response rating: 85
[1]; [18]
  Oilseed Rape plant response rating: 95
[1]; 13 to 15 days
  Plant response rating, Oilseed Rape: 95
[1]; [19]
  Oilseed Rape plant response rating: 95
[2]
  Velvetleaf plant response rating (0 to 100 scale): 90
  Velvetleaf plant response rating: 100
[3]
  Plant response rating (scale of 0 to 100 where 0 is no effect and 100 is complete control), Corn: 5
  Corn plant response rating: 5
[3]; [20]
  Plant response rating, Corn: 10
[3]; [21]
  Plant response rating, Corn: 10
[4]
  Pigweed plant response rating (0 to 100 scale): 100
  Pigweed plant response rating: 100
[5]
  Plant response rating (scale of 0 to 100 where 0 is no effect and 100 is complete control), Lambsquarters: 40
  Lambsquarters plant response rating: 50
[5]; [20]
  Plant response rating, Lambsquarters: 75
[5]; [21]
  Plant response rating, Lambsquarters: 75
[6]; [17]
  Soybean plant response rating: 35
[6]; [18]
  Soybean plant response rating: 80
[6]; 13 to 15 days
  Plant response rating, Soybean: 95
[6]; [19]
  Soybean plant response rating: 98
[7]; [17]
  Wheat plant response rating: 0
[7]; [18]
  Wheat plant response rating: 5
[7]; 13 to 15 days
  Plant response rating, Wheat: 50
[7]; [19]
  Wheat plant response rating: 90
[8]
  Plant response rating (scale of 0 to 100 where 0 is no effect and 100 is complete control), Johnsongrass: 0
  Johnsongrass plant response rating: 0
[8]; [20]
  Plant response rating, Johnsongrass: 5
[8]; [21]
  Plant response rating, Johnsongrass: 5
[9]
  Plant response rating, Waterhemp: 85
  Waterhemp plant response rating: 65
[10]; 125 g ai/ha, visual injury, 0 to 100 scale, approx. 10 days
  Barnyardgrass plant response rating: 90
[10]; [22]
  Barnyardgrass plant response rating: 100
[11]; [17]
  Blackgrass plant response rating: 75
[11]; [18]
  Blackgrass plant response rating: 90
[11]; 13 to 15 days
  Plant response rating, Blackgrass: 90
[11]; [19]
  Blackgrass plant response rating: 90
[12]; [17]
  Ragweed plant response rating: 25
[12]; [18]
  Ragweed plant response rating: 80
[12]; 13 to 15 days
  Plant response rating, Ragweed: 98
[12]; [19]
  Ragweed plant response rating: 98
[13]; [23]
  Pigweed plant response rating: 100
[13]; [24]
  Pigweed plant response rating: 100
[14]; [17]
  Johnsongrass plant response rating: 5
[14]; [18]
  Johnsongrass plant response rating: 5
[14]; 13 to 15 days
  Plant response rating, Johnsongrass: 55
[14]; [19]
  Johnsongrass plant response rating: 85
[15]; [17]
  Foxtail, Giant plant response rating: 30
[15]; [18]
  Foxtail, Giant plant response rating: 90
[15]; 13 to 15 days
  Plant response rating, Foxtail, Giant: 100
[15]; [19]
  Foxtail, Giant plant response rating: 100
[16]; [23]
  Velvetleaf plant response rating: 100
[16]; [24]
  Velvetleaf plant response rating: 80

## CCCNC(=O)c1cc(CCF)n(Cc2ccnc(C(F)(F)F)c2)n1 [Compound 177]
[1]; [17]
  Oilseed Rape plant response rating: 70
[1]; [18]
  Oilseed Rape plant response rating: 60
[1]; 13 to 15 days
  Plant response rating, Oilseed Rape: 90
[1]; [19]
  Oilseed Rape plant response rating: 95
[2]
  Velvetleaf plant response rating (0 to 100 scale): 40
  Velvetleaf plant response rating: 100
[3]
  Plant response rating (scale of 0 to 100 where 0 is no effect and 100 is complete control), Corn: 5
  Corn plant response rating: 20
[3]; [20]
  Plant response rating, Corn: 15
[3]; [21]
  Plant response rating, Corn: 15
[4]
  Pigweed plant response rating (0 to 100 scale): 100
  Pigweed plant response rating: 100
[5]
  Plant response rating (scale of 0 to 100 where 0 is no effect and 100 is complete control), Lambsquarters: 65
  Lambsquarters plant response rating: 50
[5]; [20]
  Plant response rating, Lambsquarters: 85
[5]; [21]
  Plant response rating, Lambsquarters: 75
[6]; [17]
  Soybean plant response rating: 40
[6]; [18]
  Soybean plant response rating: 70
[6]; 13 to 15 days
  Plant response rating, Soybean: 95
[6]; [19]
  Soybean plant response rating: 98
[7]; [17]
  Wheat plant response rating: 10
[7]; [18]
  Wheat plant response rating: 10
[7]; 13 to 15 days
  Plant response rating, Wheat: 50
[7]; [19]
  Wheat plant response rating: 90
[8]
  Plant response rating (scale of 0 to 100 where 0 is no effect and 100 is complete control), Johnsongrass: 0
  Johnsongrass plant response rating: 0
[8]; [20]
  Plant response rating, Johnsongrass: 5
[8]; [21]
  Plant response rating, Johnsongrass: 5
[9]
  Plant response rating, Waterhemp: 65
  Waterhemp plant response rating: 75
[10]; 125 g ai/ha, visual injury approx. 10 days after treatment
  Barnyardgrass plant response rating (0 to 100 scale, 0 is no effect, 100 is complete control): 100
[10]; [22]
  Barnyardgrass plant response rating: 100
[11]; [17]
  Blackgrass plant response rating: 50
[11]; [18]
  Blackgrass plant response rating: 85
[11]; 13 to 15 days
  Plant response rating, Blackgrass: 90
[11]; [19]
  Blackgrass plant response rating: 90
[12]; [17]
  Ragweed plant response rating: 75
[12]; [18]
  Ragweed plant response rating: 85
[12]; 13 to 15 days
  Plant response rating, Ragweed: 98
[12]; [19]
  Ragweed plant response rating: 98
[13]; [23]
  Pigweed plant response rating: 100
[13]; [24]
  Pigweed plant response rating: 100
[14]; [17]
  Johnsongrass plant response rating: 10
[14]; [18]
  Johnsongrass plant response rating: 70
[14]; 13 to 15 days
  Plant response rating, Johnsongrass: 100
[14]; [19]
  Johnsongrass plant response rating: 98
[15]; [17]
  Foxtail, Giant plant response rating: 85
[15]; [18]
  Foxtail, Giant plant response rating: 98
[15]; 13 to 15 days
  Plant response rating, Foxtail, Giant: 100
[15]; [19]
  Foxtail, Giant plant response rating: 100
[16]; [23]
  Velvetleaf plant response rating: 100
[16]; [24]
  Velvetleaf plant response rating: 40
